Marks after values point to notes of the source that are not given here. Each block holds one molecule with its values, some of them ahead of it.
Experiments:
Parameters in all cases: species or system Sprague–Dawley rats
[1] = Residence times in rat source organs from whole-body PET, FBP reconstruction; conditions: in vivo, iv
Description: (§1) Immediately after radiotracer administration, a 240 min emission scan using 4 beds (50% overlap) was obtained using 3-dimensional 1:5 mode and re-binned as follows: 7 × 1 min, 2 × 5 min and 4 × 10 min. Throughout the PET/CT scanning session, animal temperature and respiration rate were monitored and controlled. PET studies were reconstructed using filtered-back projection (FBP) and Mediso’s iterative Tera-Tomo 3D reconstruction algorithm with the following settings: 4 iterations, 6 subsets, full detector model, normal regularization, spike filter on, voxel size 0.4 mm and 400‒600 keV energy window. PET data were corrected for randoms, scatter and attenuation. […] Then, PMOD’s contours interpolation tool was used to interpolate ROIs for each organ into a corresponding volume-of-interest (VOI). A static cuboidal VOI was also drawn to include the animal whole-body. Time-activity curves for each source organ, whole-body and remainder of the body were plotted. […] Residence times (τ) were determined for each radiotracer in source organs, whole-body and remaining (any activity assigned to the whole-body but not assigned to a source organ). Each preclinical source organ’s τ was determined by calculating the area under its respective time-activity curve (activity normalised to the percentage maximum injected dose as a function of time) using the trapezoid method. […] From each individual animal, eight dosimetry models were constructed from all possible combinations of image reconstruction method (FBP or iterative), τ (non-normalised or normalised to human organ masses), and sex of phantom (male or female).

[2] = OLINDA/EXM predicted clinical doses: adult female phantom, normalised τ, iterative; conditions: rat, in vivo
Description: (§2) PET studies were reconstructed using filtered-back projection (FBP) and Mediso’s iterative Tera-Tomo 3D reconstruction algorithm with the following settings: 4 iterations, 6 subsets, full detector model, normal regularization, spike filter on, voxel size 0.4 mm and 400‒600 keV energy window. PET data were corrected for randoms, scatter and attenuation. Time-activity curves for each source organ, whole-body and remainder of the body were plotted. […] Residence times (τ) were determined for each radiotracer in source organs, whole-body and remaining (any activity assigned to the whole-body but not assigned to a source organ). Each preclinical source organ’s τ was determined by calculating the area under its respective time-activity curve (activity normalised to the percentage maximum injected dose as a function of time) using the trapezoid method. […] From each individual animal, eight dosimetry models were constructed from all possible combinations of image reconstruction method (FBP or iterative), τ (non-normalised or normalised to human organ masses), and sex of phantom (male or female). Supplementary table 12. Predicted clinical absorbed organ doses and whole-body effective doses of PET radiotracers using normalised adult female source organ residence times from iterative reconstructions.

[3] = OLINDA/EXM predicted clinical doses: adult female phantom, normalised τ, FBP; conditions: rat, in vivo
Description: as §2, with “table 8.” for “table 12.”, “from filtered backprojection” for “from iterative”

[4] = Residence times in rat source organs from whole-body PET, iterative reconstruction; conditions: in vivo, iv
Description: as §1

Residence Time (h), Average: Brain [1]: 0.0124 h
Residence Time (h), Average: Heart [1]: 0.0158 h
Residence Time (h), Average: Intestine [1]: 0.372 h
Residence Time (h), Average: Kidneys [1]: 0.0215 h
Residence Time (h), Average: Liver [1]: 0.0249 h
Residence Time (h), Average: Lungs [1]: 0.0155 h
Residence Time (h), Average: Remaining [1]: 2.1 h
Residence Time (h), Average: Urinary Bladder [1]: 0.65 h
Effective Dose [2]: 1.15E-02 mSv/MBq
Estimated Absorbed Dose of Organ, Brain [2]: 1.19E-02 mGy/MBq
Estimated Absorbed Dose of Organ, Breasts [2]: 1.84E-02 mGy/MBq
Estimated Absorbed Dose of Organ, Gallbladder Wall [2]: 8.62E-03 mGy/MBq
Estimated Absorbed Dose of Organ, Heart Wall [2]: 1.28E-02 mGy/MBq
Estimated Absorbed Dose of Organ, Kidneys [2]: 9.59E-02 ‡ mGy/MBq
Estimated Absorbed Dose of Organ, LLI Wall [2]: 1.11E-02 mGy/MBq
Estimated Absorbed Dose of Organ, Liver [2]: 2.72E-02 mGy/MBq
Estimated Absorbed Dose of Organ, Lungs [2]: 1.15E-02 mGy/MBq
Estimated Absorbed Dose of Organ, Muscle [2]: 1.79E-02 mGy/MBq
Estimated Absorbed Dose of Organ, Osteogenic Cells [2]: 1.02E-02 mGy/MBq
Estimated Absorbed Dose of Organ, Ovaries [2]: 1.03E-02 mGy/MBq
Estimated Absorbed Dose of Organ, Pancreas [2]: 1.95E-02 mGy/MBq
Estimated Absorbed Dose of Organ, Red Marrow [2]: 1.23E-02 mGy/MBq
Estimated Absorbed Dose of Organ, Skin [2]: 1.51E-02 mGy/MBq
Estimated Absorbed Dose of Organ, Small Intestine [2]: 8.33E-02 § mGy/MBq
Estimated Absorbed Dose of Organ, Spleen [2]: 7.40E-03 mGy/MBq
Estimated Absorbed Dose of Organ, Stomach Wall [2]: 1.38E-02 mGy/MBq
Estimated Absorbed Dose of Organ, Thymus [2]: 1.10E-02 mGy/MBq
Estimated Absorbed Dose of Organ, Thyroid [2]: 1.16E-02 mGy/MBq
Estimated Absorbed Dose of Organ, ULI Wall [2]: 1.15E-02 mGy/MBq
Estimated Absorbed Dose of Organ, Urinary Bladder Wall [2]: 8.48E-03 mGy/MBq
Estimated Absorbed Dose of Organ, Uterus [2]: 1.93E-01 † mGy/MBq
Estimated Absorbed Dose, Total Body [2]: 2.12E-02 mGy/MBq
Effective Dose (mSv/MBq), Average ± SD [3]: 3.21E-02 mSv/MBq
Estimated Absorbed Dose of Organ, Average: Adrenals [3]: 1.55E-02 mGy/MBq
Estimated Absorbed Dose of Organ, Average: Brain [3]: 1.10E-02 mGy/MBq
Estimated Absorbed Dose of Organ, Average: Breasts [3]: 1.16E-02 mGy/MBq
Estimated Absorbed Dose of Organ, Average: Gallbladder Wall [3]: 1.48E-02 mGy/MBq
Estimated Absorbed Dose of Organ, Average: Heart Wall [3]: 4.52E-02 mGy/MBq
Estimated Absorbed Dose of Organ, Average: Kidneys [3]: 1.70E-02 § mGy/MBq
Estimated Absorbed Dose of Organ, Average: LLI Wall [3]: 1.07E-01 † mGy/MBq
Estimated Absorbed Dose of Organ, Average: Liver [3]: 1.01E-02 mGy/MBq
Estimated Absorbed Dose of Organ, Average: Lungs [3]: 1.82E-02 mGy/MBq
Estimated Absorbed Dose of Organ, Average: Muscle [3]: 1.40E-02 mGy/MBq
Estimated Absorbed Dose of Organ, Average: Osteogenic Cells [3]: 2.19E-02 mGy/MBq
Estimated Absorbed Dose of Organ, Average: Ovaries [3]: 2.42E-02 mGy/MBq
Estimated Absorbed Dose of Organ, Average: Pancreas [3]: 1.63E-02 mGy/MBq
Estimated Absorbed Dose of Organ, Average: Red Marrow [3]: 1.37E-02 mGy/MBq
Estimated Absorbed Dose of Organ, Average: Skin [3]: 1.06E-02 mGy/MBq
Estimated Absorbed Dose of Organ, Average: Small Intestine [3]: 1.83E-02 mGy/MBq
Estimated Absorbed Dose of Organ, Average: Spleen [3]: 1.51E-02 mGy/MBq
Estimated Absorbed Dose of Organ, Average: Stomach Wall [3]: 1.57E-02 mGy/MBq
Estimated Absorbed Dose of Organ, Average: Thymus [3]: 1.48E-02 mGy/MBq
Estimated Absorbed Dose of Organ, Average: Thyroid [3]: 1.27E-02 mGy/MBq
Estimated Absorbed Dose of Organ, Average: Total Body [3]: 1.46E-02 mGy/MBq
Estimated Absorbed Dose of Organ, Average: ULI Wall [3]: 1.75E-02 mGy/MBq
Estimated Absorbed Dose of Organ, Average: Urinary Bladder Wall [3]: 1.18E-01 ‡ mGy/MBq
Estimated Absorbed Dose of Organ, Average: Uterus [3]: 2.28E-02 mGy/MBq
Residence Time (h), Average: Brain [4]: 0.0254 h
Residence Time (h), Average: Heart [4]: 0.0387 h
Residence Time (h), Average: Intestine [4]: 0.287 h
Residence Time (h), Average: Kidneys [4]: 0.0499 h
Residence Time (h), Average: Liver [4]: 0.0417 h
Residence Time (h), Average: Lungs [4]: 0.0166 h
Residence Time (h), Average: Remaining [4]: 1.35 h
Residence Time (h), Average: Urinary Bladder [4]: 1.15 h
Molecule: O=C[C@H]([18F])[C@@H](O)[C@H](O)[C@H](O)CO [FDG, 2-deoxy-2-[^18F]fluoro-D-glucose]

Residence Time (h), Average: Brain [1]: 0.00193 h
Residence Time (h), Average: Heart [1]: 0.00279 h
Residence Time (h), Average: Intestine [1]: 0.209 h
Residence Time (h), Average: Kidneys [1]: 0.029 h
Residence Time (h), Average: Liver [1]: 0.0207 h
Residence Time (h), Average: Lungs [1]: 0.00664 h
Residence Time (h), Average: Remaining [1]: 1.96 h
Residence Time (h), Average: Urinary Bladder [1]: 0.892 h
Effective Dose [2]: 8.33E-03 mSv/MBq
Estimated Absorbed Dose of Organ, Brain [2]: 8.66E-03 mGy/MBq
Estimated Absorbed Dose of Organ, Breasts [2]: 2.91E-03 mGy/MBq
Estimated Absorbed Dose of Organ, Gallbladder Wall [2]: 5.51E-03 mGy/MBq
Estimated Absorbed Dose of Organ, Heart Wall [2]: 1.03E-02 mGy/MBq
Estimated Absorbed Dose of Organ, Kidneys [2]: 1.53E-02 mGy/MBq
Estimated Absorbed Dose of Organ, LLI Wall [2]: 8.45E-03 mGy/MBq
Estimated Absorbed Dose of Organ, Liver [2]: 3.23E-02 § mGy/MBq
Estimated Absorbed Dose of Organ, Lungs [2]: 9.20E-03 mGy/MBq
Estimated Absorbed Dose of Organ, Muscle [2]: 8.21E-03 mGy/MBq
Estimated Absorbed Dose of Organ, Osteogenic Cells [2]: 7.60E-03 mGy/MBq
Estimated Absorbed Dose of Organ, Ovaries [2]: 7.96E-03 mGy/MBq
Estimated Absorbed Dose of Organ, Pancreas [2]: 1.68E-02 mGy/MBq
Estimated Absorbed Dose of Organ, Red Marrow [2]: 8.65E-03 mGy/MBq
Estimated Absorbed Dose of Organ, Skin [2]: 1.09E-02 mGy/MBq
Estimated Absorbed Dose of Organ, Small Intestine [2]: 6.42E-02 ‡ mGy/MBq
Estimated Absorbed Dose of Organ, Spleen [2]: 5.48E-03 mGy/MBq
Estimated Absorbed Dose of Organ, Stomach Wall [2]: 1.13E-02 mGy/MBq
Estimated Absorbed Dose of Organ, Thymus [2]: 8.11E-03 mGy/MBq
Estimated Absorbed Dose of Organ, Thyroid [2]: 6.90E-03 mGy/MBq
Estimated Absorbed Dose of Organ, ULI Wall [2]: 8.02E-03 mGy/MBq
Estimated Absorbed Dose of Organ, Urinary Bladder Wall [2]: 5.97E-03 mGy/MBq
Estimated Absorbed Dose of Organ, Uterus [2]: 2.38E-01 † mGy/MBq
Estimated Absorbed Dose, Total Body [2]: 2.06E-02 mGy/MBq
Effective Dose (mSv/MBq), Average ± SD [3]: 2.71E-02 mSv/MBq
Estimated Absorbed Dose of Organ, Average: Adrenals [3]: 1.41E-02 mGy/MBq
Estimated Absorbed Dose of Organ, Average: Brain [3]: 4.10E-03 mGy/MBq
Estimated Absorbed Dose of Organ, Average: Breasts [3]: 1.02E-02 mGy/MBq
Estimated Absorbed Dose of Organ, Average: Gallbladder Wall [3]: 1.36E-02 mGy/MBq
Estimated Absorbed Dose of Organ, Average: Heart Wall [3]: 1.39E-02 mGy/MBq
Estimated Absorbed Dose of Organ, Average: Kidneys [3]: 1.95E-02 § mGy/MBq
Estimated Absorbed Dose of Organ, Average: LLI Wall [3]: 6.76E-02 ‡ mGy/MBq
Estimated Absorbed Dose of Organ, Average: Liver [3]: 8.65E-03 mGy/MBq
Estimated Absorbed Dose of Organ, Average: Lungs [3]: 1.10E-02 mGy/MBq
Estimated Absorbed Dose of Organ, Average: Muscle [3]: 1.29E-02 mGy/MBq
Estimated Absorbed Dose of Organ, Average: Osteogenic Cells [3]: 2.00E-02 mGy/MBq
Estimated Absorbed Dose of Organ, Average: Ovaries [3]: 2.14E-02 mGy/MBq
Estimated Absorbed Dose of Organ, Average: Pancreas [3]: 1.47E-02 mGy/MBq
Estimated Absorbed Dose of Organ, Average: Red Marrow [3]: 1.23E-02 mGy/MBq
Estimated Absorbed Dose of Organ, Average: Skin [3]: 9.76E-03 mGy/MBq
Estimated Absorbed Dose of Organ, Average: Small Intestine [3]: 1.64E-02 mGy/MBq
Estimated Absorbed Dose of Organ, Average: Spleen [3]: 1.38E-02 mGy/MBq
Estimated Absorbed Dose of Organ, Average: Stomach Wall [3]: 1.41E-02 mGy/MBq
Estimated Absorbed Dose of Organ, Average: Thymus [3]: 1.28E-02 mGy/MBq
Estimated Absorbed Dose of Organ, Average: Thyroid [3]: 1.16E-02 mGy/MBq
Estimated Absorbed Dose of Organ, Average: Total Body [3]: 1.31E-02 mGy/MBq
Estimated Absorbed Dose of Organ, Average: ULI Wall [3]: 1.62E-02 mGy/MBq
Estimated Absorbed Dose of Organ, Average: Urinary Bladder Wall [3]: 1.54E-01 † mGy/MBq
Estimated Absorbed Dose of Organ, Average: Uterus [3]: 2.28E-02 mGy/MBq
Residence Time (h), Average: Brain [4]: 0.00225 h
Residence Time (h), Average: Heart [4]: 0.00473 h
Residence Time (h), Average: Intestine [4]: 0.212 h
Residence Time (h), Average: Kidneys [4]: 0.0652 h
Residence Time (h), Average: Liver [4]: 0.0391 h
Residence Time (h), Average: Lungs [4]: 0.00647 h
Residence Time (h), Average: Remaining [4]: 0.996 h
Residence Time (h), Average: Urinary Bladder [4]: 1.44 h
Molecule: NOTA-RGDfK [existing Al^18F-labelled NOTA-RGDfK peptide PET radiotracer; precursor NOTA-RGDfK (1)]

Reference: publication PMC7525662, “Preclinical dosimetry models and the prediction of clinical doses of novel positron emission tomography radiotracers” (Scientific Reports, 2020)
